Experimental data taken from patent publication US10246456B2, “IRAK4 inhibiting agents” (BIOGEN MA INC., priority 2014, dated 2019).

Columns and labels:
IRAK4 = IRAK4 (Homo sapiens (Human), UniProt Q9NWZ3); experiment: IRAK-4 AlphaScreen biochemical kinase assay; conditions: 1 nM IRAK4, 1 mM ATP, 3.5 h at RT
Outline: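 AlphaScreen read-out: streptavidin beads bind the biotinylated peptide and protein A beads bind the anti-phosphothreonine antibody, so energy transfer reports phosphorylation of the peptide. The kinase is human IRAK-4.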

IL-6 in A549 cells = experiment: Cell-based IL-6 ELISA assay in IL-1beta stimulated A549 cells; conditions: 2 ng/ml human IL-1beta overnight
Outline: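 A549 cells (2.5×10^4/well, DMEM/10% FBS) pretreated 30 min at 37 C with compound, 10-point serial dilution from 10 uM, then stimulated overnight with 2 ng/ml human IL-1beta. Secreted IL-6 in supernatant quantified by human IL-6 ELISA.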

Chain of IRAK4 (Q9NWZ3 whole entry, species assumed): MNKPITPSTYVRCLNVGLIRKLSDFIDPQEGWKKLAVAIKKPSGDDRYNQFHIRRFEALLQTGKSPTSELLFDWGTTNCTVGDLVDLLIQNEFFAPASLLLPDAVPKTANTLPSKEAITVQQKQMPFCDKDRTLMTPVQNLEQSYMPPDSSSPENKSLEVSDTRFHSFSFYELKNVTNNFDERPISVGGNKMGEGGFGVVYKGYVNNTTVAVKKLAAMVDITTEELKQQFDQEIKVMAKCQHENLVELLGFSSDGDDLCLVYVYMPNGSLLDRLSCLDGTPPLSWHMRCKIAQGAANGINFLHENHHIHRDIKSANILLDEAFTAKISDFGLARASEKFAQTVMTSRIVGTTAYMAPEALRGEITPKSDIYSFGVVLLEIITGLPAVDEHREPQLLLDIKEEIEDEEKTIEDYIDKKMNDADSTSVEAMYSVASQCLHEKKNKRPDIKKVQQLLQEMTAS

CCC[C@H](N)c1cccc(-c2cc(OC)c3cnn(-c4cccc(CO)n4)c3c2)n1 [Example 463, (S)-(6-(6-(6-(1-aminobutyl)pyridin-2-yl)-4-methoxy-1H-indazol-1-yl)pyridin-2-yl)methanol]
IC50 (IRAK4): < 100 nM | EC50 (IL-6 in A549 cells): ≤ 1000 nM

CCC[C@H](N)c1cccc(-c2cc(N3CCC(C(=O)O)C3)c3cnn(-c4cccc(CO)n4)c3c2)n1 (stereo partly drawn) [Example 341, 1-(6-(6-((S)-1-aminobutyl)pyridin-2-yl)-1-(6-(hydroxymethyl)pyridin-2-yl)-1H-indazol-4-yl)pyrrolidine-3-carboxylic acid]
IC50 (IRAK4): < 100 nM | EC50 (IL-6 in A549 cells): ≤ 1000 nM

CC(O)CC(N)c1cccc(-c2ccc3cnn(-c4cccc(CO)n4)c3c2)n1 (stereo not shown) [Example 508, 4-amino-4-(6-(1-(6-(hydroxymethyl)pyridin-2-yl)-1H-indazol-6-yl)pyridin-2-yl)butan-2-ol]
IC50 (IRAK4): < 100 nM | EC50 (IL-6 in A549 cells): ≤ 1000 nM

CCC[C@H](N)c1cccc(-c2ccc3cnn(-c4cccc(CF)n4)c3c2)n1 [Example 518, (S)-1-(6-(1-(6-(fluoromethyl)pyridin-2-yl)-1H-indazol-6-yl)pyridin-2-yl)butan-1-amine]
IC50 (IRAK4): < 100 nM | EC50 (IL-6 in A549 cells): ≤ 1000 nM

CCC[C@H](N)c1cccc(-c2cc(N3CCS(=O)(=O)CC3)c3cnn(-c4cccc(CO)n4)c3c2)n1 [Example 337, (S)-4-(6-(6-(1-aminobutyl)pyridin-2-yl)-1-(6-(hydroxymethyl)pyridin-2-yl)-1H-indazol-4-yl)thiomorpholine 1,1-dioxide]
IC50 (IRAK4): < 100 nM | EC50 (IL-6 in A549 cells): ≤ 1000 nM

CC[C@H](N)c1cccc(-c2cc(OCCCOC)c3cnn(-c4cccc(CO)n4)c3c2)n1 [Example 457, (S)-(6-(6-(6-(1-aminopropyl)pyridin-2-yl)-4-(3-methoxypropoxy)-1H-indazol-1-yl)pyridin-2-yl)methanol]
IC50 (IRAK4): < 100 nM | EC50 (IL-6 in A549 cells): ≤ 1000 nM

CCC[C@H](N)c1cccc(-c2cc(OCC(F)(F)F)c3cnn(-c4cccc(CO)n4)c3c2)n1 [Example 514, (S)-(6-(6-(6-(1-aminobutyl)pyridin-2-yl)-4-(2,2,2-trifluoroethoxy)-1H-indazol-1-yl)pyridin-2-yl)methanol]
IC50 (IRAK4): < 100 nM | EC50 (IL-6 in A549 cells): ≤ 1000 nM

N[C@H](c1cccc(-c2ccc3cnn(-c4cccc(CO)n4)c3c2)n1)C1CCC1 [Example 422, (S)-(6-(6-(6-(amino(cyclobutyl)methyl)pyridin-2-yl)-1H-indazol-1-yl)pyridin-2-yl)methanol]
IC50 (IRAK4): < 100 nM | EC50 (IL-6 in A549 cells): ≤ 1000 nM

C[C@H](N)c1cccc(-c2cc(-c3nc(C#N)cs3)c3cnn(-c4cccc(CO)n4)c3c2)n1 [Example 369, (S)-2-(6-(6-(1-aminoethyl)pyridin-2-yl)-1-(6-(hydroxymethyl)pyridin-2-yl)-1H-indazol-4-yl)thiazol-4-carbonitrile]
IC50 (IRAK4): < 100 nM | EC50 (IL-6 in A549 cells): ≤ 1000 nM

CCC[C@H](N)c1cccc(-c2cc(N3CC(F)(F)C3)c3cnn(-c4cccc(CO)n4)c3c2)n1 [Example 331, (S)-(6-(6-(6-(1-aminobutyl)pyridin-2-yl)-4-(3,3-difluoroazetidin-1-yl)-1H-indazol-1-yl)pyridin-2-yl)methanol]
IC50 (IRAK4): < 100 nM | EC50 (IL-6 in A549 cells): ≤ 1000 nM

NC(c1cccc(-c2ccc3cnn(-c4cccc(CO)n4)c3c2)n1)C1CC1 (stereo not shown) [Example 538, (6-(6-(6-(amino(cyclopropyl)methyl)pyridin-2-yl)-1H-indazol-1-yl)pyridin-2-yl)methanol]
IC50 (IRAK4): < 100 nM | EC50 (IL-6 in A549 cells): ≤ 1000 nM

C[C@H](N)c1cccc(-c2cc(-n3cncn3)c3cnn(-c4cccc(CO)n4)c3c2)n1 [Example 355, (S)-(6-(6-(6-(1-aminoethyl)pyridin-2-yl)-4-(1H-1,2,4-triazol-1-yl)-1H-indazol-1-yl)pyridin-2-yl)methanol]
IC50 (IRAK4): < 100 nM | EC50 (IL-6 in A549 cells): ≤ 1000 nM

C[C@H](N)c1cccc(-c2cc(-c3ccccc3)c3cnn(-c4cccc(CO)n4)c3c2)n1 [Example 371, (S)-(6-(6-(6-(1-aminoethyl)pyridin-2-yl)-4-phenyl-1H-indazol-1-yl)pyridin-2-yl)methanol]
IC50 (IRAK4): < 100 nM | EC50 (IL-6 in A549 cells): ≤ 1000 nM

NC(CO)c1cccc(-c2ccc3cnn(-c4cccc(CO)n4)c3c2)n1 (stereo not shown) [Example 530, 2-amino-2-(6-(1-(6-(hydroxymethyl)pyridin-2-yl)-1H-indazol-6-yl)pyridin-2-yl)ethanol]
IC50 (IRAK4): 100 to 1000 nM | EC50 (IL-6 in A549 cells): ≤ 1000 nM

Cc1cc(-c2cc(-c3cccc([C@H](C)N)n3)cc3c2cnn3-c2cccc(CO)n2)n[nH]1 [Example 366, (S)-(6-(6-(6-(1-aminoethyl)pyridin-2-yl)-4-(5-methyl-1H-pyrazol-3-yl)-1H-indazol-1-yl)pyridin-2-yl)methanol]
IC50 (IRAK4): < 100 nM | EC50 (IL-6 in A549 cells): ≤ 1000 nM

CCOc1cc(-c2cccc([C@@H](N)CC(C)(F)F)n2)cc2c1cnn2-c1cccc(CO)n1 [Example 438, (S)-(6-(6-(6-(1-amino-3,3-difluorobutyl)pyridin-2-yl)-4-ethoxy-1H-indazol-1-yl)pyridin-2-yl)methanol]
IC50 (IRAK4): < 100 nM | EC50 (IL-6 in A549 cells): ≤ 1000 nM

C[C@H](N)c1cccc(-c2cc(-n3ccc(C(F)(F)F)n3)c3cnn(-c4cccc(CO)n4)c3c2)n1 [Example 356, (S)-(6-(6-(6-(1-aminoethyl)pyridin-2-yl)-4-(3-(trifluoromethyl)-1H-pyrazol-1-yl)-1H-indazol-1-yl)pyridin-2-yl)methanol]
IC50 (IRAK4): < 100 nM | EC50 (IL-6 in A549 cells): 1000 to 10000 nM

CC[C@H](N)c1cccc(-c2cc(OC)c3cnn(-c4cncc(CO)n4)c3c2)n1 [Example 503, (S)-(6-(6-(6-(1-aminopropyl)pyridin-2-yl)-4-methoxy-1H-indazol-1-yl)pyrazin-2-yl)methanol]
IC50 (IRAK4): < 100 nM | EC50 (IL-6 in A549 cells): ≤ 1000 nM

COc1cc(-c2cccc([C@@H](N)C3CC3)n2)cc2c1cnn2-c1cncc(CO)n1 [Example 496, (S)-(6-(6-(6-(amino(cyclopropyl)methyl)pyridin-2-yl)-4-methoxy-1H-indazol-1-yl)pyrazin-2-yl)methanol]
IC50 (IRAK4): < 100 nM | EC50 (IL-6 in A549 cells): ≤ 1000 nM

CCC[C@H](N)c1ccnc(-c2ccc3cnn(-c4cccc(CO)n4)c3c2)n1 [Example 413, (S)-(6-(6-(4-(1-aminobutyl)pyrimidin-2-yl)-1H-indazol-1-yl)pyridin-2-yl)methanol]
IC50 (IRAK4): < 100 nM | EC50 (IL-6 in A549 cells): ≤ 1000 nM

C[C@H](N)c1cccc(-c2cc(-c3ccn(C)n3)c3cnn(-c4cccc(CO)n4)c3c2)n1 [Example 357, (S)-(6-(6-(6-(1-aminoethyl)pyridin-2-yl)-4-(1-methyl-1H-pyrazol-3-yl)-1H-indazol-1-yl)pyridin-2-yl)methanol]
IC50 (IRAK4): < 100 nM | EC50 (IL-6 in A549 cells): ≤ 1000 nM

CCC[C@H](N)c1cccc(-c2cc(Cl)c3cnn(-c4cccc(CO)n4)c3c2)n1 [Example 490, (S)-(6-(6-(6-(1-aminobutyl)pyridin-2-yl)-4-chloro-1H-indazol-1-yl)pyridin-2-yl)methanol]
IC50 (IRAK4): < 100 nM | EC50 (IL-6 in A549 cells): ≤ 1000 nM

CSCC(N)c1cccc(-c2ccc3cnn(-c4cccc(CO)n4)c3c2)n1 (stereo not shown) [Example 520, (6-(6-(6-(1-amino-2-(methylthio)ethyl)pyridin-2-yl)-1H-indazol-1-yl)pyridin-2-yl)methanol]
IC50 (IRAK4): < 100 nM | EC50 (IL-6 in A549 cells): ≤ 1000 nM

C[C@H](N)c1cccc(-c2ccc3cnn(-c4nccc(C(F)F)n4)c3c2)n1 [Example 541, (S)-1-(6-(1-(4-(difluoromethyl)pyrimidin-2-yl)-1H-indazol-6-yl)pyridin-2-yl)ethanamine]
IC50 (IRAK4): 100 to 1000 nM | EC50 (IL-6 in A549 cells): 1000 to 10000 nM

CCC[C@H](N)c1cccc(-c2cc(NCC)c3cnn(-c4cccc(CO)n4)c3c2)n1 [Example 328, (S)-(6-(6-(6-(1-aminobutyl)pyridin-2-yl)-4-(ethylamino)-1H-indazol-1-yl)pyridin-2-yl)methanol]
IC50 (IRAK4): < 100 nM | EC50 (IL-6 in A549 cells): ≤ 1000 nM

Cc1cccc(-n2ncc3c(-c4cnco4)cc(-c4cccc(C(C)N)n4)cc32)n1 (stereo not shown) [Example 536, 1-(6-(1-(6-methylpyridin-2-yl)-4-(oxazol-5-yl)-1H-indazol-6-yl)pyridin-2-yl)ethanamine]
IC50 (IRAK4): < 100 nM | EC50 (IL-6 in A549 cells): ≤ 1000 nM

CS(=O)(=O)CC(N)c1cccc(-c2ccc3cnn(-c4cccc(CO)n4)c3c2)n1 (stereo not shown) [Example 532, (6-(6-(6-(1-amino-2-(methylsulfonyl)ethyl)pyridin-2-yl)-1H-indazol-1-yl)pyridin-2-yl)methanol]
IC50 (IRAK4): < 100 nM | EC50 (IL-6 in A549 cells): ≤ 1000 nM

CCOc1cc(-c2cccc(C(N)C3COC3)n2)cc2c1cnn2-c1cccc(CO)n1 (stereo not shown) [Example 447, (6-(6-(6-(amino(oxetan-3-yl)methyl)pyridin-2-yl)-4-ethoxy-1H-indazol-1-yl)pyridin-2-yl)methanol]
IC50 (IRAK4): < 100 nM | EC50 (IL-6 in A549 cells): ≤ 1000 nM

CCC[C@@H](N)c1ccnc(-c2ccc3cnn(-c4cccc(CO)n4)c3c2)n1 [Example 414, (R)-(6-(6-(4-(1-aminobutyl)pyrimidin-2-yl)-1H-indazol-1-yl)pyridin-2-yl)methanol]
IC50 (IRAK4): < 100 nM | EC50 (IL-6 in A549 cells): ≤ 1000 nM

C[C@H](N)c1cccc(-c2ccc3cnn(-c4ccc(F)c(CO)n4)c3c2)n1 [Example 545, (S)-(6-(6-(6-(1-aminoethyl)pyridin-2-yl)-1H-indazol-1-yl)-3-fluoropyridin-2-yl)methanol]
IC50 (IRAK4): < 100 nM | EC50 (IL-6 in A549 cells): 1000 to 10000 nM

CCC[C@H](N)c1cccc(-c2ccc3cnn(-c4cccc(C=O)n4)c3c2)n1 [Example 450, (S)-6-(6-(6-(1-aminobutyl)pyridin-2-yl)-1H-indazol-1-yl)picolinaldehyde]
IC50 (IRAK4): < 100 nM | EC50 (IL-6 in A549 cells): 1000 to 10000 nM

CCOc1cc(-c2cccc([C@@H](N)CC)n2)cc2c1cnn2-c1cncc(CO)n1 [Example 500, (S)-(6-(6-(6-(1-aminopropyl)pyridin-2-yl)-4-ethoxy-1H-indazol-1-yl)pyrazin-2-yl)methanol]
IC50 (IRAK4): < 100 nM | EC50 (IL-6 in A549 cells): ≤ 1000 nM
